# Measured values published in the supplement of paper PMC10307832.
# How the values were obtained:
# Experiment in all cases: relative viability (nuclei count vs DMSO), 5 days (fraction); higher = more cells survive
# CUDC-101 + Lapatinib = compound: C#Cc1cccc(Nc2ncnc3cc(OC)c(OCCCCCCC(=O)NO)cc23)c1 [CUDC-101] + CS(=O)(=O)CCNCc1ccc(-c2ccc3ncnc(Nc4ccc(OCc5cccc(F)c5)c(Cl)c4)c3c2)o1 [Lapatinib] (partner 2 µM)
# How it was run: (§1)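 Relative viability divides the nuclei count in treated wells by that in vehicle wells. Lung cancer cell lines were seeded in 1536-well plates, dosed by pin tool the next day, and fixed and stained after 5 days in one step with final 0.05% Triton X-100, 1% formaldehyde and 1 ug/ml Hoechst. Dosing was a single drug or a fixed anchor-drug dose plus five library-drug doses (not always all listed) in √10 steps, and values are medians of duplicate plates imaged at 4×.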
# CUDC-101 + Trametinib = compound: C#Cc1cccc(Nc2ncnc3cc(OC)c(OCCCCCCC(=O)NO)cc23)c1 [CUDC-101] + CC(=O)Nc1cccc(-n2c(=O)n(C3CC3)c(=O)c3c(Nc4ccc(I)cc4F)n(C)c(=O)c(C)c32)c1 [Trametinib] (partner 0.02 µM)
# How it was run: as §1
# Vandetanib + Dasatinib = compound: COc1cc2/c(=N/c3ccc(Br)cc3F)nc[nH]c2cc1OCC1CCN(C)CC1 [Vandetanib] + Cc1nc(Nc2ncc(C(=O)Nc3c(C)cccc3Cl)s2)cc(N2CCN(CCO)CC2)n1 [Dasatinib] (partner 0.075 µM)
# How it was run: as §1
# Vandetanib + OSI-027 = compound: COc1cc2/c(=N/c3ccc(Br)cc3F)nc[nH]c2cc1OCC1CCN(C)CC1 [Vandetanib] + COc1cccc2cc(-c3nc([C@H]4CC[C@H](C(=O)O)CC4)n4ncnc(N)c34)[nH]c12 [OSI-027] (partner 0.5 µM)
# How it was run: as §1
Cell Line,relative viability (CUDC-101 + Lapatinib; first compound 0.01 µM),relative viability (CUDC-101 + Lapatinib; first compound 0.03162 µM),relative viability (CUDC-101 + Lapatinib; first compound 0.1 µM),relative viability (CUDC-101 + Lapatinib; first compound 0.3162 µM),relative viability (CUDC-101 + Lapatinib; first compound 1 µM),relative viability (CUDC-101 + Trametinib; first compound 0.01 µM),relative viability (CUDC-101 + Trametinib; first compound 0.03162 µM),relative viability (CUDC-101 + Trametinib; first compound 0.1 µM),relative viability (CUDC-101 + Trametinib; first compound 0.3162 µM),relative viability (CUDC-101 + Trametinib; first compound 1 µM),relative viability (Vandetanib + Dasatinib; first compound 0.02 µM),relative viability (Vandetanib + Dasatinib; first compound 0.06325 µM),relative viability (Vandetanib + Dasatinib; first compound 0.2 µM),relative viability (Vandetanib + Dasatinib; first compound 0.6325 µM),relative viability (Vandetanib + Dasatinib; first compound 2 µM),relative viability (Vandetanib + OSI-027; first compound 0.02 µM),relative viability (Vandetanib + OSI-027; first compound 0.06325 µM),relative viability (Vandetanib + OSI-027; first compound 0.2 µM),relative viability (Vandetanib + OSI-027; first compound 0.6325 µM),relative viability (Vandetanib + OSI-027; first compound 2 µM)
PC-3 [JPC-3],0.419,0.462,0.443,0.364,0.32,0.608,0.519,0.494,0.455,0.323,0.952,0.865,0.954,0.497,0.571,0.757,0.768,0.795,0.462,0.45
IA-LM,0.999,0.666,0.605,0.653,0.305,–,–,–,–,–,–,–,–,–,–,–,–,–,–,–
NCI-H520,0.94,–,0.879,0.76,0.323,0.572,0.688,0.788,0.674,0.251,0.139,0.228,0.218,0.191,0.225,0.219,0.226,0.311,0.268,0.271
A549,0.975,1.01,0.946,0.821,0.386,–,–,–,–,–,–,–,–,–,–,–,–,–,–,–
BEN,0.925,0.628,0.707,0.739,0.539,1.03,0.889,0.895,0.972,0.706,0.309,0.331,0.271,0.286,0.288,0.247,0.302,0.292,0.285,0.282
COR-L 105,0.425,0.356,0.316,0.264,0.226,0.442,0.424,0.41,0.452,0.311,0.337,0.322,0.271,0.281,0.184,0.629,0.641,0.507,0.411,0.329
NCI-H1734,1.1,0.988,1.07,1.09,0.841,0.694,0.594,0.761,0.786,0.523,0.471,0.497,0.44,0.469,0.468,0.576,0.605,0.543,0.611,0.652
LOU-NH91,0.843,0.772,0.764,0.825,0.641,0.804,0.727,0.738,0.831,0.738,0.53,0.433,0.506,0.442,0.317,0.76,0.604,0.599,0.502,0.515
NCI-H2405,1.25,1.05,1.19,1.27,0.917,0.682,0.558,0.658,0.779,0.551,0.217,0.183,0.2,0.187,0.199,0.621,0.422,0.72,0.671,0.482
HCC-15,0.857,0.908,0.831,0.845,0.698,0.396,0.382,0.385,0.399,0.262,0.583,0.572,0.632,0.639,0.606,0.75,0.638,0.668,0.682,0.537
HCC-44,0.923,1.07,0.947,0.979,0.812,1.04,1.08,1.04,1.05,1.03,–,–,–,–,–,0.434,0.49,0.574,0.439,0.427
NCI-H1792,0.91,0.883,0.877,0.913,0.825,0.607,0.322,0.439,0.453,0.359,0.774,0.803,0.783,0.884,0.725,0.761,0.715,0.784,0.751,0.63
NCI-H2347,1.08,0.918,1.03,1.05,0.91,0.285,0.264,0.278,0.294,0.259,0.299,–,0.312,0.323,0.345,0.518,–,0.386,0.492,0.361
SW 900,–,–,–,–,–,0.914,0.74,0.799,0.627,0.746,0.445,0.57,0.537,0.641,0.409,0.456,0.486,0.315,0.622,0.713
RERF-LC-KJ,0.893,0.905,0.841,0.826,0.698,0.908,0.955,0.865,0.775,0.672,0.767,0.868,0.756,0.758,0.683,0.627,0.537,0.545,0.471,0.412
